Test results as given in US20120208781A1, “AMINOGLYCOSIDE DOSING REGIMENS” (Achaogen, Inc., priority 2009, published 2012).
In brackets after ≈: the same amount, converted by molar mass.

Test system: Acinetobacter spp. (ACB)
Assay: MIC, CLSI broth microdilution, worldwide isolates: Acinetobacter spp.
Format: cell-based
Text: In the first study, a total of 235 isolates were collected from medical centers worldwide and tested for susceptibility to Compound 1 and comparator agents by CLSI broth microdilution methods. […] Non-ENT GN pathogens included WT P. aeruginosa (PSA) and Acinetobacter spp. (ACB), and carbapenem (CARB)-R strains, including those with MBL and OXA enzymes, SA and coagulase-negative staphylococci (CoNS) included oxacillin-susceptible (MSSA/MS-CoNS) and —R (MRSA/MR-CoNS) strains.
Minimum inhibitory concentrations (MIC) were determined by reference Clinical and Laboratory Standards Institute (CLSI) broth microdilution methods per M7-A7 [2006]. Briefly, serial two-fold dilutions of Compound 1 and comparator AGs (together, “the test compounds”) were prepared at 2× concentration in appropriate diluent. The dilutions were mixed in 96-well assay plates with bacterial inoculum. Bacteria were suspended in sterile saline and added to each assay plate to obtain a final concentration of 5.5×10^5 CFU/mL. The plates were incubated at 35° C. for 20 hours in ambient air. […] After incubation, assay plates were read using a microtiter plate reader at 600 nm.

CN[C@@H]1[C@@H](O)[C@@H](O[C@@H]2[C@@H](O)[C@H](O[C@H]3OC(CNCCO)=CC[C@H]3N)[C@@H](N)C[C@H]2NC(=O)[C@@H](O)CCN)OC[C@]1(C)O [Compound 1, 6′-(2-Hydroxy-ethyl)-1-(4-amino-2(S)-hydroxy-butyryl)-sisomicin]
Cumulative % inhibited at Cmpd. MIC 1 (ACB (30)): 10.0% | Cumulative % inhibited at Cmpd. MIC 2 (ACB (30)): 23.3% | Cumulative % inhibited at Cmpd. MIC 4 (ACB (30)): 26.7% | Cumulative % inhibited at Cmpd. MIC 8 (ACB (30)): 66.7% | Cumulative % inhibited at Cmpd. MIC 16 (ACB (30)): 70.0% | Cumulative % inhibited at Cmpd. MIC 32 (ACB (30)): 90.0% | Cumulative % inhibited at Cmpd. MIC 64 (ACB (30)): 100.0% | Cumulative % inhibited at Cmpd. MIC ≦0.5 (ACB (30)): 3.3% | Cumulative % inhibited at Cmpd. MIC 1 (ACB, CARB-R (20)): 15.0% | Cumulative % inhibited at Cmpd. MIC 2 (ACB, CARB-R (20)): 30.0% | Cumulative % inhibited at Cmpd. MIC 4 (ACB, CARB-R (20)): 30.0% | Cumulative % inhibited at Cmpd. MIC 8 (ACB, CARB-R (20)): 70.0% | Cumulative % inhibited at Cmpd. MIC 16 (ACB, CARB-R (20)): 75.0% | Cumulative % inhibited at Cmpd. MIC 32 (ACB, CARB-R (20)): 95.0% | Cumulative % inhibited at Cmpd. MIC 64 (ACB, CARB-R (20)): 100.0% | Cumulative % inhibited at Cmpd. MIC ≦0.5 (ACB, CARB-R (20)): 5.0% | Cumulative % inhibited at Cmpd. MIC 1 (ACB, WT (10)): 0.0% | Cumulative % inhibited at Cmpd. MIC 2 (ACB, WT (10)): 10.0% | Cumulative % inhibited at Cmpd. MIC 4 (ACB, WT (10)): 20.0% | Cumulative % inhibited at Cmpd. MIC 8 (ACB, WT (10)): 60.0% | Cumulative % inhibited at Cmpd. MIC 16 (ACB, WT (10)): 60.0% | Cumulative % inhibited at Cmpd. MIC 32 (ACB, WT (10)): 80.0% | Cumulative % inhibited at Cmpd. MIC 64 (ACB, WT (10)): 100.0% | Cumulative % inhibited at Cmpd. MIC ≦0.5 (ACB, WT (10)): 0.0% | MIC50 (Acinetobacter, ACB isolates): 8 µg/mL (≈ 13.5 µM) | MIC90 (Acinetobacter, ACB isolates): 32 µg/mL (≈ 54 µM)
